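How tested: cells in 96-well plates exposed to compound for 48 hours at five concentrations. GI50 = concentration required for 50% inhibition of growth.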 Calls of active or inactive are those of the source. Rule as the data show it: active = GI50 up to about 1.1 µM and inactive = higher.
Experiments:
Experiment in all cases: inhibition of tumour cell growth, NCI panel, 48 h
[1] = system: A498
[2] = system: CAKI-1
[3] = system: HCT-116
[4] = system: HCT-15
[5] = system: IGROV-1
[6] = system: KM12
[7] = system: Malme-3M
[8] = system: SF-539
[9] = system: SK-MEL-28
[10] = system: SK-OV-3
[11] = system: SNB-19
[12] = system: SNB-75
[13] = system: SW-620
[14] = system: UO-31
[15] = system: SR

| Structure (SMILES) | GI50 [1] | GI50 [2] | GI50 [3] | GI50 [4] [µM] | GI50 [5] | GI50 [6] | GI50 [7] | GI50 [8] | GI50 [9] | GI50 [10] | GI50 [11] | GI50 [12] | GI50 [13] | GI50 [14] | GI50 [15] |
| --- | --- | --- | --- | --- | --- | --- | --- | --- | --- | --- | --- | --- | --- | --- | --- |
| NC(=O)NNC(=O)NC12CC3CC(CC(C3)C1)C2 | > 100 µM (inactive) | > 100 µM (inactive) | > 100 µM (inactive) | > 100 | > 100 µM (inactive) | > 100 µM (inactive) | > 100 µM (inactive) | > 100 µM (inactive) | > 100 µM (inactive) | > 100 µM (inactive) | > 100 µM (inactive) | > 100 µM (inactive) | > 100 µM (inactive) | > 100 µM (inactive) | – |
| COC(=O)C(=O)C(C(=O)C=C(C)C)C(=O)C(=O)Nc1ccc(C)cc1C (configuration not stated) | > 100 µM (inactive) | > 100 µM (inactive) | > 100 µM (inactive) | > 100 | > 100 µM (inactive) | > 100 µM (inactive) | > 100 µM (inactive) | > 100 µM (inactive) | > 100 µM (inactive) | > 100 µM (inactive) | > 100 µM (inactive) | > 100 µM (inactive) | > 100 µM (inactive) | > 100 µM (inactive) | > 100 µM (inactive) |
| CC(/C=C/C(=O)c1sc(C(N)=S)nc1C)=C\c1ccccc1 | > 100 µM (inactive) | 23.4 µM (inactive) | > 10 µM (inactive) | > 100 | > 100 µM (inactive) | > 100 µM (inactive) | > 100 µM (inactive) | > 100 µM (inactive) | > 100 µM (inactive) | > 100 µM (inactive) | 15.1 µM (inactive) | > 100 µM (inactive) | – | > 100 µM (inactive) | 31.9 µM (inactive) |
| COC(=O)/C=C(\C(=O)OC)c1c2c3c(cc(OC)c(OC)c3c3ccccc13)CCN2C | – | – | 37.4 µM (inactive) | 22.3 | 26.8 µM (inactive) | 36.1 µM (inactive) | 33.7 µM (inactive) | 27.5 µM (inactive) | 38.3 µM (inactive) | 62.4 µM (inactive) | 35.5 µM (inactive) | 66.8 µM (inactive) | 35.5 µM (inactive) | 46.2 µM (inactive) | 26.1 µM (inactive) |
| CC1CC[P+](c2ccccc2)(c2ccccc2)CC1 | > 100 µM (inactive) | – | > 100 µM (inactive) | > 100 | 98.2 µM (inactive) | 92.5 µM (inactive) | > 100 µM (inactive) | 78.3 µM (inactive) | > 100 µM (inactive) | > 100 µM (inactive) | 92.3 µM (inactive) | 62.4 µM (inactive) | > 100 µM (inactive) | > 100 µM (inactive) | 55.5 µM (inactive) |
| CC(C)(C)/N=N/C(C)(C)N=C=O | > 100 µM (inactive) | > 100 µM (inactive) | > 100 µM (inactive) | > 100 | > 100 µM (inactive) | > 100 µM (inactive) | > 100 µM (inactive) | > 100 µM (inactive) | > 100 µM (inactive) | > 100 µM (inactive) | > 100 µM (inactive) | > 100 µM (inactive) | > 100 µM (inactive) | > 100 µM (inactive) | > 100 µM (inactive) |
| CC/C(=N\NS(=O)(=O)c1ccccc1)c1ccccc1 | > 100 µM (inactive) | > 100 µM (inactive) | > 100 µM (inactive) | > 100 | > 100 µM (inactive) | > 100 µM (inactive) | > 100 µM (inactive) | > 100 µM (inactive) | > 100 µM (inactive) | > 100 µM (inactive) | – | > 100 µM (inactive) | > 100 µM (inactive) | > 100 µM (inactive) | > 100 µM (inactive) |
| Cc1cc(C)nc(NS(=O)(=O)c2ccc(NC(=O)c3ccc(Cl)c4c(Nc5ccc(S(=O)(=O)Nc6nc(C)cc(C)n6)cc5)c5ccccc5nc34)cc2)n1 | 23.8 µM (inactive) | 42.3 µM (inactive) | 1.82 µM (inactive) | 26.9 | 3.31 µM (inactive) | 21.8 µM (inactive) | 14.4 µM (inactive) | 2.22 µM (inactive) | 4.28 µM (inactive) | 13.7 µM (inactive) | 4.89 µM (inactive) | 21.3 µM (inactive) | 18.2 µM (inactive) | 24.9 µM (inactive) | – |
| COc1cc2[nH]c3c(c2cc1OC)CCN[C@]31CC[C@]2(CC3c4c(cc(OC)c(O)c42)CCN3C)C[C@H]1OC (some centres not stated) | 24.8 µM (inactive) | 34.4 µM (inactive) | 15.6 µM (inactive) | 18.8 | 22.5 µM (inactive) | 17.7 µM (inactive) | 21 µM (inactive) | 17.1 µM (inactive) | 20.2 µM (inactive) | 25.8 µM (inactive) | 34.8 µM (inactive) | 21.5 µM (inactive) | 22.3 µM (inactive) | > 10 µM (inactive) | 15.8 µM (inactive) |
| O=C1Cc2c([nH]c3ccccc23)-c2cc(Br)ccc2N1 | > 100 µM (inactive) | > 100 µM (inactive) | > 100 µM (inactive) | > 100 | > 100 µM (inactive) | > 100 µM (inactive) | > 100 µM (inactive) | > 100 µM (inactive) | > 100 µM (inactive) | > 100 µM (inactive) | > 100 µM (inactive) | > 100 µM (inactive) | > 100 µM (inactive) | > 100 µM (inactive) | – |
